# Experimental data published in article PMC12075686, “Structural basis of phosphorylation-independent nuclear import of CIRBP by TNPO3” (Nature Communications, 2025).
# Numbering of substitutions follows the chain as printed. Non-standard residues stand in square brackets, D forms with d. Residues, ends and D or L forms follow the SMILES beside them. No end group written: not given here. pS = N[C@@H](COP(=O)(O)O)C(=O)O
# Key:
# TNPO3 C511A = molecular target: T1, TNPO3 C511A (Homo sapiens, UniProt Q9Y5L0, C511A); assay: ITC, ligand titrated into TNPO3 C511A; format: binding; conditions: for TNPO3 binding Kd, outcome in words: TNPO3 C511A, two replicates
# T1 construct: full-length (FL) WT human TNPO3 were generated by synthesizing codon-optimized DNA fragments; His6 (N, cleaved yes); protein A (N, cleaved yes); made in house; host or cells: Escherichia coli BL21-(DE3) Star
# T1 sequence (Q9Y5L0 1-923 C511A): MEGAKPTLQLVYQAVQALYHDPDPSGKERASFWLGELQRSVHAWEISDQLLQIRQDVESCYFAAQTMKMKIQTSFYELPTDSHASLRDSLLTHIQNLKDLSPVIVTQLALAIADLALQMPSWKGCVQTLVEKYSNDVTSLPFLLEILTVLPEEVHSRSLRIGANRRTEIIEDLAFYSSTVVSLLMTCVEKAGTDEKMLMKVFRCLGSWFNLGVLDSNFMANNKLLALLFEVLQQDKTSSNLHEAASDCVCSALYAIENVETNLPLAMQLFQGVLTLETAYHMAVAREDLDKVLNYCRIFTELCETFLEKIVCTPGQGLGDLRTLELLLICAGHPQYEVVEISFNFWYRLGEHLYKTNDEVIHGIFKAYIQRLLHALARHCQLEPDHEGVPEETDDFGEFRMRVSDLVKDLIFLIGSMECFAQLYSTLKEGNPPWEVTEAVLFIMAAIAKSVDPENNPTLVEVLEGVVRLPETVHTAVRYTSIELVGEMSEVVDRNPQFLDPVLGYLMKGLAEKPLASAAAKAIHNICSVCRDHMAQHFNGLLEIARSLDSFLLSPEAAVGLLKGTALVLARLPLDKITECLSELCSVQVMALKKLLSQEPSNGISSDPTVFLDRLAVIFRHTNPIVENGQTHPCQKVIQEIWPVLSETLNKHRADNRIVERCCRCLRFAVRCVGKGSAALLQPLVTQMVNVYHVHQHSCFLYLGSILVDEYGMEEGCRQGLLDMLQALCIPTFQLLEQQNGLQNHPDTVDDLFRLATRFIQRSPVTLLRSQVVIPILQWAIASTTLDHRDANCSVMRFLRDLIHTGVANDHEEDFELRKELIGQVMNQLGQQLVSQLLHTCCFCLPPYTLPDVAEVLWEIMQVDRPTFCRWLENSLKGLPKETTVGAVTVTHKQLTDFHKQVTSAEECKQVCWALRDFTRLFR
# Protocol: (§1) ITC has been performed by a Malvern Microcal VP-ITC at 25 °C for all binding studies. Samples have been dissolved in Tris buffer containing 50 mM Tris–HCl, 150 mM NaCl, 2 mM TCEP, and 0.04% NaN3 at pH 7.5. Binding studies of CIRBP^RSY and SRSF1^RS were performed with TNPO3 WT, and studies of CIRBP (157–172) and its mutants/phosphorylations were performed with TNPO3 C511A, respectively. Injection has been carried out by a syringe containing ligand solution of 100 μM, which adds ligand step-wise into the cell containing 10 μM TNPO3 during 28 injections of 10 μL each. Data analysis, curve fitting, and calculation of Kd, ΔH, and ΔS have been carried out using Origin-based 7.0 software provided by the manufacturer. All replicated ITC data are shown in Supplementary Fig. 6 and Supplementary Table 1.
# TNPO3 = assay: NMR binding studies with TNPO3 (1H-15N HSQC, 1H-13C HMQC, 1H 1D, STD); design: species or system human; conditions: for chemical shift perturbations of TNPO3 methyl groups upon ligand addition (1H,13C HMQC): 100 µM [IM-methyl 13C] labeled TNPO3, one stoichiometric equivalent of ligand, 298 K; for line broadening of peptide 1H signals upon addition of TNPO3 (1H NMR): 50 µM peptide, stoichiometric amount of TNPO3
# Protocol: All NMR studies for TNPO3 were carried out using the wild type protein. Protein samples for ^1H-^13C HMQC were prepared at a concentration of 100 μM and equilibrated in a buffer containing 50 mM Tris–HCl, pH 6.7, 150 mM NaCl, 2 mM TCEP and 10% D2O. Spectral acquisitions for TNPO3 free and in complex with CIRBP^RSY and SRSF1^RS, respectively were performed at 298 K on a 700 MHz Bruker Avance III NMR spectrometer equipped with a TCI triple-resonance cryoprobe. The pulse program was sfhmqcf2gpph and the spectra were recorded with 32 scans, interscan delay of 1 s, 160 points in F1, 1024 points in F2, 5283.879 Hz spectral width in F1, and 11,160.714 Hz spectral width in F2. Spectra were processed using Topspin 4.1.3.
# Spectral acquisitions for TNPO3 free and in complex with mCIRBP^RSY, pCIRBP^RSY, and pSRSF1^RS, respectively, were performed at 298 K on a 600 MHz Bruker Avance Neo NMR spectrometer equipped with a TXI 600S3 probehead. The pulse program was hmqcgpphwg and the spectra were recorded with 64 scans, interscan delay of 1 s, 200 points in F1, 1024 points in F2, 4545.455 Hz spectral width in F1, and 7812.500 Hz spectral width in F2. Spectra were processed using Topspin 4.3.0.
# For ^1H-^15N HSQC spectra, protein samples were equilibrated in a buffer containing 50 mM Tris–HCl, pH 6.7, 150 mM NaCl, 2 mM TCEP, 0.04% NaN3, and 10% D2O (with additional 20 mM MgCl2 for CIRBP phosphorylation kinetics). Data were recorded at 298 K on the 600 MHz Bruker Avance Neo NMR spectrometer equipped with a TXI 600S3 probehead. The pulse program was hsqcetfpf3gpsi and was recorded with 8-16 scans, interscan delay of 1 s, 128 points in F1, 1024 points in F2, 1949.318 Hz spectral width in F1, and 9615.385 Hz spectral width in F2. Spectra were processed using Topspin 4.3.0.
# TNPO3 WT = molecular target: T2, TNPO3 WT (Homo sapiens, UniProt Q9Y5L0); assay: ITC, ligand titrated into TNPO3 WT; format: binding; conditions: for ΔS: TNPO3 WT
# T2 sequence (Q9Y5L0 1-923): T1 sequence (Q9Y5L0 1-923 C511A) with A511C
# Protocol: as §1
# [1] = 100 µM ligand into 10 µM TNPO3 C511A, 25 °C, 50 mM Tris–HCl, 150 mM NaCl, 2 mM TCEP, 0.04% NaN3, pH 7.5, error = SD of the fit
Compound,"Kd / affinity of binding to TNPO3 C511A (ITC), as given in Table 1 (TNPO3 C511A; [1])","TNPO3 binding Kd, outcome in words (TNPO3 C511A)",line broadening of peptide 1H signals upon addition of TNPO3 (1H NMR) (TNPO3),also measured
"GGSYADSYDSYATHNE [CIRBP (157-172) R161A, synthetic CIRBP (157-172) peptide with point mutation R161A]",No binding,No binding,–,–
"DGPRSPSYGRSRSRSRS [SRSF1^RS, recombinant canonical SR/RS-NLS of human SRSF1 (195-211), unphosphorylated, reference compound]",–,–,–,"spectral changes of 15N-labeled cargo upon addition of TNPO3 (1H,15N HSQC) (TNPO3; 60 µM cargo, one stoichiometric equivalent of TNPO3, 298 K, pH 6.7): weak binding; chemical shift perturbations of TNPO3 methyl groups upon ligand addition (1H,13C HMQC) (TNPO3; pH 6.7): no binding was observed; Kd of binding to TNPO3 (ITC), as given in text and figures (TNPO3 WT; ITC, 100 µM ligand into 10 µM TNPO3 WT, 28 injections of 10 µL, 25 °C, 50 mM Tris–HCl, 150 mM NaCl, 2 mM TCEP, 0.04% NaN3, pH 7.5, error = SD of the fit): no binding was detectable"
"GGSYRDSADSYATHNE [CIRBP (157-172) Y164A, synthetic CIRBP (157-172) peptide with point mutation Y164A]",No binding,No binding,–,–
GGSYRDSYDSYATHNE [CIRBP (157-172) WT],–,–,–,"Kd (TNPO3 C511A; 100 µM ligand into 10 µM TNPO3 C511A, 25 °C, 50 mM Tris–HCl, 150 mM NaCl, 2 mM TCEP, 0.04% NaN3, pH 7.5, error = SD of the fit, read-out: Kd / affinity of binding to TNPO3 C511A (ITC), as given in Table 1): 5.78 ± 1.63 µM"
C[C@H](NC(=O)[C@H](Cc1ccc(O)cc1)NC(=O)[C@H](CO)NC(=O)[C@H](CC(=O)O)NC(=O)[C@H](Cc1ccc(O)cc1)NC(=O)[C@H](CO)NC(=O)[C@H](CC(=O)O)NC(=O)[C@H](CCCNC(=N)N)NC(=O)[C@H](Cc1ccc(O)cc1)NC(=O)[C@H](CO)NC(=O)CNC(=O)CNC(=O)[C@H](CO)NC(=O)[C@H](CO)NC(=O)[C@H](CCCNC(=N)N)NC(=O)[C@H](CC(=O)O)NC(=O)[C@H](COP(=O)(O)O)NC(=O)[C@H](Cc1ccc(O)cc1)NC(=O)CNC(=O)CNC(=O)[C@H](COP(=O)(O)O)NC(=O)[C@H](CCC(N)=O)NC(=O)[C@H](COP(=O)(O)O)NC(=O)[C@H](CCCNC(=N)N)NC(=O)[C@H](CO)NC(=O)[C@H](CO)NC(=O)[C@H](Cc1ccc(O)cc1)NC(=O)[C@H](Cc1ccc(O)cc1)NC(=O)[C@H](CC(=O)O)NC(=O)[C@H](CCCNC(=N)N)NC(=O)[C@H](CO)NC(=O)CN)C(=O)N[C@H](C(=O)N[C@@H](Cc1c[nH]cn1)C(=O)N[C@@H](CC(N)=O)C(=O)N[C@@H](CCC(=O)O)C(=O)O)[C@@H](C)O [pCIRBP^RSY] (H-GSRDYYSSR[pS]Q[pS]GGY[pS]DRSSGGSYRDSYDSYATHNE-OH),–,–,–,"chemical shift perturbations of TNPO3 methyl groups upon ligand addition (1H,13C HMQC) (TNPO3; pH 6.7): shifted to comparable end points; decrease of TNPO3 binding affinity upon SRPK1 phosphorylation (TNPO3 WT; ITC Kd 0.61 ± 0.10 versus 5.99 ± 0.96 µM): ten-fold; ΔS (TNPO3 WT; ITC, replicate 1 (rep1)): –112 cal/mol/deg; ΔS (TNPO3 WT; ITC, replicate 2 (rep2)): –50.6 cal/mol/deg"
"GGSYRDSpYDSYATHNE [CIRBP (157-172) Y164pY, synthetic CIRBP (157-172) peptide with phosphorylated Y164]",decreased binding beyond being detectable or fittable,No binding,–,–
"GGSYRDSYDpSYATHNE [CIRBP (157-172) S166pS, synthetic CIRBP (157-172) peptide with phosphorylated S166]",decreased binding beyond being detectable or fittable,No binding,–,–
"GGSYRDSYDSpYATHNE [CIRBP (157-172) Y167pY, synthetic CIRBP (157-172) peptide with phosphorylated Y167]",–,Low affinity,–,–
YYDYEIERFWRGGQYENFRV [ZCH18],–,–,broadened,–
SQVYRCGFQPFNQHLLPW [P5CS],–,–,broadened,–

# More lines, main results first:
"Kd / affinity of binding to TNPO3 C511A (ITC), as given in Table 1 (TNPO3 C511A; [1])","TNPO3 binding Kd, outcome in words (TNPO3 C511A)",line broadening of peptide 1H signals upon addition of TNPO3 (1H NMR) (TNPO3),Compound,also measured
–,–,broadened,"PSGGSYRDSYESYGNS [RBMX/RMXL1, synthetic peptide RBMX (276–291), CIRBP-like motif]",change of peptide 1H 1D NMR signals with sub-stoichiometric TNPO3 (TNPO3; 100 µM RSY regions and 10 µM TNPO3 (peer review reply)): slight decrease of peptide signal intensity
Low affinity,Low affinity,–,"GGSYRDSYDSAATHNE [CIRBP (157-172) Y167A, synthetic CIRBP (157-172) peptide with point mutation Y167A]",–
–,–,broadened,SRDRRFRGRYRSPYSG [RBM39],–
